Tests used:
Assay type in all cases: biochemical
[1] = biological target: T1, Coprinus cinereus peroxidase (CiP) (Coprinopsis cinerea, UniProt P28314); assay: Initial bleaching of Chicago Sky Blue 6B (CSB) with Coprinus cinereus peroxidase and enhancers; conditions: 5 μM enhancer, 20 μM H2O2, 30° C.
T1 construct: made in house
T1 sequence (P28314 21-363): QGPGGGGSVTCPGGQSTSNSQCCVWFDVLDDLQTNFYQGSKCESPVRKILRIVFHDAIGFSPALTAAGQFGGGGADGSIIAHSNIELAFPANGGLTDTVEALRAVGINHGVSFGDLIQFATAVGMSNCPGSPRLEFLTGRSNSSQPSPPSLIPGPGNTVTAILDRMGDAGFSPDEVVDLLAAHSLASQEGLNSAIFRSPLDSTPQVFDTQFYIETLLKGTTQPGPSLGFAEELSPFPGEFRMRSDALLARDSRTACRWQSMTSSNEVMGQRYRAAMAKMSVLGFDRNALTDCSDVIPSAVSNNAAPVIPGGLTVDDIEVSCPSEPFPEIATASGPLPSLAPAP
Method: (§1) The bleaching rate of Direct Blue 1 (DB1) by purified CiP was determined using the following conditions: […]
(§2) Reagents were mixed in a thermostated cuvette at 30° C. and the bleaching was started by addition of hydrogen peroxide. The bleaching was detected spectrophotometrically at 610 nm, which is the wavelength of the absorption peak of DB1. Bleaching was followed for 1 minute, and the initial reduction in absorbance, --ΔmAbs/minute, was determined.
Bleaching tests were performed in exactly the same way as described in Example 2 except that instead of using DB1 Chigaco Sky Blue (CSB) (obtainable from Aldrich) was used, and the following enhancers were tested: […]

[2] = system: laccase obtained from Coprinus friesii; assay: Bleaching of Direct Blue 1 using Coprinus friesii laccase and methylsyringate; conditions: 10 μM methylsyringate, 30° C.
Method: (§3) Bleaching of the dye Direct Blue 1 at various pH values was conducted using a laccase obtained from Coprinus comatus, Coprinus friesii, Coprinus plicatilis, Panaeolus papilionaceus or Psathyrella condolleana and methylsyringate.
(§4) After fermentation the culture broths were centrifugated and the supernatants were used in the tests described below.
(§5) The bleaching rate of DB1 was determined using the following conditions: […]
(§6) Reagents were mixed in a 1 ml thermostated cuvette at 30° C. and the bleaching was started by addition of the laccase.
(§7) The bleaching was followed spectrophotometrically at 610 nm, which is the wavelength of the absorption peak of DB1, with readings every 5 sec. for a period of 5 minutes. The initial bleaching rate was determined from the first linear part of the absorbance curve.

[3] = system: laccase obtained from Psathyrella condolleana; assay: Bleaching of Direct Blue 1 using Psathyrella condolleana laccase and methylsyringate; conditions: 10 μM methylsyringate, 30° C.
Method: as §3, §4, §5, §6, §7

[4] = biological target: T1, Coprinus cinereus peroxidase (CiP); assay: Initial bleaching of Direct Blue 1 with Coprinus cinereus peroxidase and enhancers; conditions: 5 μM enhancer, 20 μM H2O2, 30° C.
Method: A Coprinus cinereus peroxidase (CiP), obtained as described in WO 9412621 was used.
Dilutions of CiP were made in a solution of 0.15 gram/l of Triton X-405.
as §1, §2

[5] = biological target: T2, Coprinus cinereus laccase (Coprinopsis cinerea, UniProt Q9Y780); assay: Bleaching of Direct Blue 1 using Coprinus cinereus laccase with/without enhancing agents at pH 5.5-8.5; conditions: C. cinereus laccase 1 mg/l, 10 μM enhancing agent, 30° C.
T2 sequence (Q9Y780 19-539): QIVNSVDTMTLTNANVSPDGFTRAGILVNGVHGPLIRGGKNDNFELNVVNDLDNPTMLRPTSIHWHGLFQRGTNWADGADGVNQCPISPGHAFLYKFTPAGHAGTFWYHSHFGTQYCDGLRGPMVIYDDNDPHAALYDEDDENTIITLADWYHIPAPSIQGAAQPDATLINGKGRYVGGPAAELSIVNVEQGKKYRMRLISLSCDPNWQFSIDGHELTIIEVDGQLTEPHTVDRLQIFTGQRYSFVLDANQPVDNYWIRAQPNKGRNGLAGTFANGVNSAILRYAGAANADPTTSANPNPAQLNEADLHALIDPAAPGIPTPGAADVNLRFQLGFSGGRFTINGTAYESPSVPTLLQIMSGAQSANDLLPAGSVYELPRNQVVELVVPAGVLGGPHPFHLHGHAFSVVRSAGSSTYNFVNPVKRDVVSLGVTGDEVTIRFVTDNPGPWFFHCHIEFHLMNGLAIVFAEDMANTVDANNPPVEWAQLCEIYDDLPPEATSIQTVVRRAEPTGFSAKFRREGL
Method: Bleaching of the dye Direct Blue 1 at various pH values was conducted using Coprinus cinereus laccase and one of the following enhancing agents:
The laccase was obtained in the following way: Coprinus cinereus (IFO 30116--freely available to the public from Institute of Fermentation, Osaka (IFO) under the indicated deposit number) was inoculated from a PDA agar slant (PDA: 39 g/l potato dextrose agar) into a 100 ml shake flask containing medium A (Medium A is described in Example 3). The culture was cultivated for 6 days at 26° C. and 100 rpm. A 10-liter fermentor containing medium A was inoculated with the 100 ml culture broth. The fermentation ran for 6 days at 26° C. and 100 rpm. The culture broth was filtrated and concentrated by ultrafiltration. Further purification was carried out using hydrophobic interaction chromatography followed by anionic exchange chromatography. This process resultated in a preparation with a laccase activity of 3.6 LACU/ml. The estimated purity was >80% on a protein basis.
The bleaching rate of DB1 was determined using the owing conditions: […]
as §6
The bleaching was followed spectrophotometrically at 610 nm, which is the wavelength of the absorption peak of DB1 with readings every 5 sec. for a period of 5 minutes. The initial bleaching rate was determined from the first linear part of the absorbance curve.

[6] = system: laccase obtained from Coprinus plicatilis; assay: Bleaching of Direct Blue 1 using Coprinus plicatilis laccase and methylsyringate; conditions: 10 μM methylsyringate, 30° C.
Method: as §3, §4, §5, §6, §7

[7] = system: laccase obtained from Panaeolus papilionaceus; assay: Bleaching of Direct Blue 1 using Panaeolus papilionaceus laccase and methylsyringate; conditions: 10 μM methylsyringate, 30° C.
Method: as §3, §4, §5, §6, §7

[8] = system: laccase obtained from Coprinus comatus; assay: Bleaching of Direct Blue 1 using Coprinus comatus laccase and methylsyringate; conditions: 10 μM methylsyringate, 30° C.
Method: as §3, §4, §5, §6, §7

[9] = biological target: T3, Trametes villosa laccase (Trametes villosa, UniProt Q99044); assay: Bleaching of Direct Blue 1 with Trametes villosa laccase with and without enhancing agents; conditions: 10 μM enhancer, 30° C.
T3 construct: made in house; host or cells: Trametes villosa CBS 678.70 (native producer), purified from culture broth
T3 sequence (Q99044 22-520): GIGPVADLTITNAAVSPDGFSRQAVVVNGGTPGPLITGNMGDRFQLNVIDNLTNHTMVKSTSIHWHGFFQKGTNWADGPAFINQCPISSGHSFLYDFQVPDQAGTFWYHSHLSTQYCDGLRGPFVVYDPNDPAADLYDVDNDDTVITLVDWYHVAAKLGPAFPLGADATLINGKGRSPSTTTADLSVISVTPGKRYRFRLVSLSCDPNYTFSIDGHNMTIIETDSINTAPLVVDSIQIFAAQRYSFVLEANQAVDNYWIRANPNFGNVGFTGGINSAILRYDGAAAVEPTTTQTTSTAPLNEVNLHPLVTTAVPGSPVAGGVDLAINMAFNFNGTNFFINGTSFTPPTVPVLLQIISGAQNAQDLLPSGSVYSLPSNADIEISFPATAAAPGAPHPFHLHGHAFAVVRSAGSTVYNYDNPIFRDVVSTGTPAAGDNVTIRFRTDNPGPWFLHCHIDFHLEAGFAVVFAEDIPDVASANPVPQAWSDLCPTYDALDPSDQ
Method: Laccase obtained from Trametes villosa: 800 ml culture broth of Trametes villosa, CBS 678.70, was filtered with filter aid to give a clear filtrate, which was concentrated and washed by ultrafiltration on a membrane with a cut-off of 6-8 kDa. One ml samples of concentrated preparation was applied onto a Q-Sepharose HP column (Pharmacia, Sweden) equilibrated with 0.1 M fosfate pH 7, and the laccase was eluted with a flat NaCl gradient around 0.25 M. Fractions with laccase activity from 10 runs were pooled and concentrated by ultrafiltration to an activity of 500 LACU/ml.
The following conditions were used: […]
Reagents were mixed in a 1 cm thermostated cuvette at 30° C. and the bleaching was started by addition of enzyme.
The bleaching was detected spectrophotometrically at 610 nm, which is the absorption peak of DB1. After 5 sec. bleaching was followed for 4 minutes.
Bleaching of Direct Blue 1 with Trametes villosa laccase, obtained as described above, at pH 5.5 (1.6 mg/l) and pH 7.0 (16 mg/l): […]

With `CCCCOC(=O)c1cc(OC)c(O)c(OC)c1` [butylsyringate] the “Initial Bleaching of CSB with CiP” value ([1]; pH 8.5, 0.08 mg/l CiP) was 228 -ΔmAbs/minute and the “Initial Bleaching of CSB with CiP” value ([1]; pH 10.5, 0.16 mg/l CiP) was 48 -ΔmAbs/minute.
For `CCOC(=O)C=Cc1cc(OC)c(O)c(OC)c1` [ethyl 3-(4-hydroxy-3,5-dimethoxyphenyl)acrylate], the “Initial Bleaching of CSB with CiP” value ([1]; pH 8.5, 0.08 mg/l CiP) was 48 -ΔmAbs/minute and the “Initial Bleaching of CSB with CiP” value ([1]; pH 10.5, 0.16 mg/l CiP) was 48 -ΔmAbs/minute.
In the case of `CCOC(=O)c1cc(OC)c(O)c(OC)c1` [ethylsyringate], the “Initial Bleaching of CSB with CiP” value ([1]; pH 8.5, 0.08 mg/l CiP) is reported as 240 -ΔmAbs/minute and the “Initial Bleaching of CSB with CiP” value ([1]; pH 10.5, 0.16 mg/l CiP) is reported as 52 -ΔmAbs/minute.
`CCCCCCOC(=O)c1cc(OC)c(O)c(OC)c1` [hexylsyringate] was tested, and the “Initial Bleaching of CSB with CiP” value ([1]; pH 8.5, 0.08 mg/l CiP) was 276 -ΔmAbs/minute and the “Initial Bleaching of CSB with CiP” value ([1]; pH 10.5, 0.16 mg/l CiP) was 36 -ΔmAbs/minute.
`COC(=O)c1cc(OC)c(O)c(OC)c1` [methylsyringate] was tested, and the “Initial bleaching rate of DB1” value ([2]; C. friesii laccase 4 LACU/l, pH 5.5) was 40 -ΔmAbs/minute, the “Initial bleaching rate of DB1” value ([2]; C. friesii laccase 4 LACU/l, pH 7.0) was 55 -ΔmAbs/minute and the “Initial bleaching rate of DB1” value ([2]; C. friesii laccase 20 LACU/l, pH 8.5) was 61 -ΔmAbs/minute. The “Initial bleaching rate of DB1” value ([3]; Ps. condolleana laccase 4 LACU/l, pH 5.5) was 45 -ΔmAbs/minute, the “Initial bleaching rate of DB1” value ([3]; Ps. condolleana laccase 4 LACU/l, pH 7.0) was 54 -ΔmAbs/minute and the “Initial bleaching rate of DB1” value ([3]; Ps. condolleana laccase 20 LACU/l, pH 8.5) was 43 -ΔmAbs/minute. The “Initial Bleaching of CSB with CiP” value ([1]; pH 8.5, 0.08 mg/l CiP) was 211 -ΔmAbs/minute, the “Initial Bleaching of CSB with CiP” value ([1]; pH 10.5, 0.16 mg/l CiP) was 42 -ΔmAbs/minute and the “Initial Bleaching of Direct Blue 1 with CiP” value ([4]; pH 8.5, 0.08 mg/l CiP) was 245 -ΔmAbs/minute. For the same molecule, the “Initial Bleaching of Direct Blue 1 with CiP” value ([4]; pH 10.5, 0.16 mg/l CiP) was 8 -ΔmAbs/minute, the “Initial bleaching rate of DB1” value ([5]; pH 5.5) was 20 -ΔmAbs/minute and the “Initial bleaching rate of DB1” value ([5]; pH 7.0) was 94 -ΔmAbs/minute. For the same molecule, the “Initial bleaching rate of DB1” value ([5]; pH 8.5) was 57 -ΔmAbs/minute, the “Initial bleaching rate of DB1” value ([6]; C. plicalitis laccase 4 LACU/l, pH 5.5) was 42 -ΔmAbs/minute and the “Initial bleaching rate of DB1” value ([6]; C. plicalitis laccase 4 LACU/l, pH 7.0) was 39 -ΔmAbs/minute. For the same molecule, the “Initial bleaching rate of DB1” value ([6]; C. plicalitis laccase 20 LACU/l, pH 8.5) was 14 -ΔmAbs/minute, the “Initial bleaching rate of DB1” value ([7]; Pan. papilionaceus laccase 4 LACU/l, pH 5.5) was 16 -ΔmAbs/minute and the “Initial bleaching rate of DB1” value ([7]; Pan. papilionaceus laccase 4 LACU/l, pH 7.0) was 19 -ΔmAbs/minute. For the same molecule, the “Initial bleaching rate of DB1” value ([7]; Pan. papilionaceus laccase 20 LACU/l, pH 8.5) was 18 -ΔmAbs/minute, the “Initial bleaching rate of DB1” value ([8]; C. comatus laccase 4 LACU/l, pH 5.5) was 33 -ΔmAbs/minute and the “Initial bleaching rate of DB1” value ([8]; C. comatus laccase 4 LACU/l, pH 7.0) was 23 -ΔmAbs/minute. The “Initial bleaching rate of DB1” value ([8]; C. comatus laccase 20 LACU/l, pH 8.5) was 2 -ΔmAbs/minute.
With `CCCCCCCCOC(=O)c1cc(OC)c(O)c(OC)c1` [octylsyringate] the “Initial Bleaching of CSB with CiP” value ([1]; pH 8.5, 0.08 mg/l CiP) was 192 -ΔmAbs/minute and the “Initial Bleaching of CSB with CiP” value ([1]; pH 10.5, 0.16 mg/l CiP) was 15 -ΔmAbs/minute.
`CCCOC(=O)c1cc(OC)c(O)c(OC)c1` [propylsyringate] was tested, and the “Initial Bleaching of CSB with CiP” value ([1]; pH 8.5, 0.08 mg/l CiP) was 228 -ΔmAbs/minute and the “Initial Bleaching of CSB with CiP” value ([1]; pH 10.5, 0.16 mg/l CiP) was 60 -ΔmAbs/minute.
For `COc1cc(C=O)cc(OC)c1O` [syringaldehyde], the “DB1 bleaching in 4 minutes” value ([9]; pH 5.5, Trametes villosa laccase 1.6 mg/l) was 438 -ΔmAbs/4 min, the “DB1 bleaching in 4 minutes” value ([9]; pH 7.0, Trametes villosa laccase 16 mg/l) was 112 -ΔmAbs/4 min and the “Initial Bleaching of Direct Blue 1 with CiP” value ([4]; pH 8.5, 0.08 mg/l CiP) was 151 -ΔmAbs/minute. The “Initial Bleaching of Direct Blue 1 with CiP” value ([4]; pH 10.5, 0.16 mg/l CiP) was 4 -ΔmAbs/minute, the “Initial bleaching rate of DB1” value ([5]; pH 5.5) was 29 -ΔmAbs/minute and the “Initial bleaching rate of DB1” value ([5]; pH 7.0) was 79 -ΔmAbs/minute. The “Initial bleaching rate of DB1” value ([5]; pH 8.5) was 28 -ΔmAbs/minute.

— patent US5912405A, “Enhancers such as acetosyringone” (Novo Nordisk A/S, priority 1994, dated 1999)
